Measurements from ChEMBL document CHEMBL1201862, “PubChem BioAssay data set” (2004).
Active and inactive are the calls of the source.

Legend:
X-box-binding protein 1 = target: T1, X-box-binding protein 1 (Homo sapiens, UniProt P17861); format: functional, Cricetulus griseus;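 note: confirmatory dose-response counter-screen serving a CHOP assay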
T1 sequence (P17861 whole entry): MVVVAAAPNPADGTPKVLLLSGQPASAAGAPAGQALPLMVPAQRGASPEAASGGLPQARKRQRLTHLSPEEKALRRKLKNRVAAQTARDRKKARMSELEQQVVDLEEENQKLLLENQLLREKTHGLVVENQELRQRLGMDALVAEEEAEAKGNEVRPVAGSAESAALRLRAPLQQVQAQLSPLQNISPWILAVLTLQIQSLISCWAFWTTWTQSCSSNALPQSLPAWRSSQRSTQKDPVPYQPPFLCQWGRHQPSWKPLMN

[1] = target: DNA damage-inducible transcript 3 protein (Mus musculus, UniProt P35639); format: functional, Cricetulus griseus
DNA damage-inducible transcript 3 protein, sequence (P35639 whole entry): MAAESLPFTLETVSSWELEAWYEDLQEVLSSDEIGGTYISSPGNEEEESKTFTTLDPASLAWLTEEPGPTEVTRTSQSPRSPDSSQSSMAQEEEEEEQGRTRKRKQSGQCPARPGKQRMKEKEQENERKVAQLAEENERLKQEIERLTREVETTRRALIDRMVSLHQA

Troponin, cardiac muscle = Troponin, cardiac muscle (Homo sapiens, UniProt P19429+P45379+P63316); experiment: Fluorescence-based biochemical high throughput dose response assay for activators of the calcium sensitivity of cardiac Regulated Thin Filaments (RTF). [Related pubchem assays (depositor defined):AID493008, AID493018, AID504382, AID504383]; format: protein-complex assay
[2] = target: DNA dC->dU-editing enzyme APOBEC-3A (Homo sapiens, UniProt P31941); experiment: Dose Response confirmation of small molecule APOBEC3A DNA Deaminase Inhibitors via a fluorescence-based single-stranded DNA deaminase assay. [Related pubchem assays (depositor defined):AID493011, AID493024]; format: functional
DNA dC->dU-editing enzyme APOBEC-3A, sequence (P31941 whole entry): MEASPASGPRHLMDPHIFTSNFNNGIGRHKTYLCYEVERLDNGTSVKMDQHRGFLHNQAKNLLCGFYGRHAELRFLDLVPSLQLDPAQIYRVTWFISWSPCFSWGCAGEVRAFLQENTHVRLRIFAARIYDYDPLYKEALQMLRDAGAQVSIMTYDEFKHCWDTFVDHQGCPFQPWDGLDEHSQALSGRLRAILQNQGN

[3] = target: DNA dC->dU-editing enzyme APOBEC-3G (Homo sapiens, UniProt Q9HC16); format: functional;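 note: Dose-response counterscreen measuring inhibition of APOBEC3G DNA deaminase activity, run while confirming APOBEC3A inhibitors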
DNA dC->dU-editing enzyme APOBEC-3G, sequence (Q9HC16 whole entry): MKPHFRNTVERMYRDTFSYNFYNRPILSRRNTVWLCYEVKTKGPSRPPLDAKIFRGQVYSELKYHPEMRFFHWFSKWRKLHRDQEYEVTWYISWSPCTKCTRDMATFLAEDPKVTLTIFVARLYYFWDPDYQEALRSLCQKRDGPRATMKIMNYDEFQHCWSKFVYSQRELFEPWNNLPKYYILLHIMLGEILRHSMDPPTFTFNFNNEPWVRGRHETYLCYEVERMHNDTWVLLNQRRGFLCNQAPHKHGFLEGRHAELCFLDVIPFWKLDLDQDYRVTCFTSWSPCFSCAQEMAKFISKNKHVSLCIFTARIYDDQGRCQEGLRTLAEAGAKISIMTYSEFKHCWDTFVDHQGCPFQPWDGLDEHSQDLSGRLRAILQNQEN

[4] = target: G-protein coupled receptor 55 (Homo sapiens, UniProt Q9Y2T6); experiment: SAR Analysis of Selective Antagonists of GPR55 using an Image-Based Assay - Set 3. [Related pubchem assays (depositor defined):AID2058, AID2079]; format: functional
G-protein coupled receptor 55, sequence (Q9Y2T6 whole entry): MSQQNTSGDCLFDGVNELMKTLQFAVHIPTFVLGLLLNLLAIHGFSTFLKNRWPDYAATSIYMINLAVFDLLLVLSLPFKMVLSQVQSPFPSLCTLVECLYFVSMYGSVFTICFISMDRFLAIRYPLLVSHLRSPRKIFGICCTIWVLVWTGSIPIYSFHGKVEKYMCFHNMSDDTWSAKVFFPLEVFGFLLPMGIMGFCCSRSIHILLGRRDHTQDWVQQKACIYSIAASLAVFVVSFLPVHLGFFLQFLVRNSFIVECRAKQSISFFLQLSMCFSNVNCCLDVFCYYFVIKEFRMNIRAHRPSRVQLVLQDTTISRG

[5] = target: G-protein coupled receptor 35 (Homo sapiens, UniProt Q9HC97); experiment: SAR analysis of Antagonists of the GPR35 Receptor using an Image-Based Assay - Set 5. [Related pubchem assays (depositor defined):AID2058, AID2079]; format: functional
G-protein coupled receptor 35, sequence (Q9HC97 whole entry): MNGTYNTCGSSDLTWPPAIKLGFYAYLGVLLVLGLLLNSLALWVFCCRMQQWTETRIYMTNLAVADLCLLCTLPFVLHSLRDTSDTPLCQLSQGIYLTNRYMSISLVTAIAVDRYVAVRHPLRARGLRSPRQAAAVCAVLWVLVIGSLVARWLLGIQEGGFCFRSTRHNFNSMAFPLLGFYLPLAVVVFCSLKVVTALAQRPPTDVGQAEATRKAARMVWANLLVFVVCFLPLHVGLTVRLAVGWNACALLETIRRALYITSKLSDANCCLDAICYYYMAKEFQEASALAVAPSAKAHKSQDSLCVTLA

Cn1nc(-c2ccccc2)cc1NC(=O)Nc1ccc(C(C)(C)C)cc1
Absolute IC50 (XBP1) (X-box-binding protein 1): 10 µM | Absolute IC50 (CHOP) [1]: 10 µM

Cc1ccc(NC(=O)CN(C)c2ccc(S(=O)(=O)N3CCCC3)cn2)cc1
EC50 (Troponin, cardiac muscle): > 71.5 µM (inactive)

COc1ccc(C(=O)NC(C)c2nnc(SCc3ccc(Cl)c(Cl)c3)n2C)cc1 (centres undefined)
IC50 [2]: 3.87 µM (active) | IC50 [3]: 5.45 µM (active)

NC(=S)N/N=C/c1c[nH]nc1-c1ccccc1
IC50 [4]: > 32 µM (inactive) | IC50 [5]: > 32 µM (inactive)

N#C/C(=C\c1c[nH]c2ccccc12)C(=O)Nc1ncc(Cc2ccc(Cl)cc2Cl)s1
EC50 (Troponin, cardiac muscle): > 71.5 µM (inactive)

NC(=O)CC(NC(=O)Cc1cccc2ccccc12)c1ccc(NCc2cc(F)ccc2F)c([N+](=O)[O-])c1 (centres undefined)
Absolute IC50 (CHOP) [1]: 10 µM
